Assay results taken from US6949556B2, “Acylated 1,2,3,4-tetrahydronaphthyl amines and their use as pharmaceutical agents” (Aventis Pharma Deutschland GmbH, priority 2001, dated 2005).

Tested on: eNOS promoter
Experiment: Activation of eNOS transcription (eNOS promoter firefly luciferase reporter)
Type: cell-based
Conditions: EC50 of transcription induction ratio (TIR) vs compound concentration, determined graphically; stably transfected human endothelial cell line, 18 h incubation
Experimental: Activation of eNOS transcription was measured as described in detail in Li et al. “Activation of protein kinase C alpha and/or epsilon enhances transcription of the human endothelial nitric oxide synthase gene”, Mol. Pharmacol. 1998; 53: 630-637. Briefly, a 3.5 kB long fragment 5′ of the starting codon of the eNOS gene was cloned, sequenced and cloned in firefly luciferase expression plasmids to monitor activation of the eNOS promoter by reporter gene activity. A human endothelial cell line stable transfected and expressing this promoter-reporter construct was used for compound testing. Cells were incubated for 18 h with compounds.
All compounds were dissolved in sterile DMSO. A final concentration of 0.5% DMSO in complete medium was allowed. Induction of reporter gene expression in these cells was measured using a standard luciferase assay system (Promega, Cat. No E150) according to the manufacturer's instructions. Luciferase induction in cells incubated with compounds were compared to those incubated with solvent alone. The ratio of both activities (transcription induction ratio, TIR) was plotted as a function of compound concentration. Typically, TIR values started at low concentrations at a ratio of 1, indicating no compound effect, and extended up to a maximum TIR value TIR(max) which indicates the increase of the eNOS transcription. EC50 values of transcription induction ratios as a function of compound concentration were determined graphically.

Structure (SMILES)	EC50 [µM]
O=C(NC1CCc2ccccc2C1)c1ccc(F)cc1 (stereo not shown) [Compound 1, 4-Fluoro-N-(1,2,3,4-tetrahydro-naphth-2-yl)-benzamide]	2.2
O=C(N[C@@H]1CCc2cccc(Br)c2C1)c1ccc(F)cc1 [Compound 4, (R)-N-(8-Bromo-1,2,3,4-tetrahydro-naphth-2-yl)-4-fluoro-benzamide]	> 30
O=C(N[C@H]1CCc2cccc(Br)c2C1)c1ccc(F)cc1 [Compound 5, (S)-N-(8-Bromo-1,2,3,4-tetrahydro-naphth-2-yl)-4-fluoro-benzamide]	10
COc1cccc2c1CC[C@@H](NC(=O)c1ccc(F)cc1)C2 [Compound 6, (R)-N-(5-Methoxy-1,2,3,4-tetrahydro-naphth-2-yl)-4-fluoro-benzamide]	1.5
COc1cccc2c1CC[C@H](NC(=O)c1ccc(F)cc1)C2 [Compound 7, (S)-N-(5-Methoxy-1,2,3,4-tetrahydro-naphth-2-yl)-4-fluoro-benzamide]	6
CN(C)c1cccc(C(=O)N[C@@H]2CCc3ccccc3C2)c1 [Compound 10, 3-Dimethylamino-N-(R)-1,2,3,4-tetrahydro-naphthalen-2-yl-benzamide]	9.56
CN(C)c1cccc(C(=O)N[C@H]2CCc3ccccc3C2)c1 [Compound 11, 3-Dimethylamino-N-(S)-1,2,3,4-tetrahydro-naphthalen-2-yl-benzamide]	12.8
O=C(N[C@@H]1CCc2ccccc2C1)c1ccc(Cl)nc1 [Compound 14, 6-Chloro-N-(R)-1,2,3,4-tetrahydro-naphthalen-2-yl-nicotinamide]	5.93
Nc1ncccc1C(=O)N[C@@H]1CCc2ccccc2C1 [Compound 17, 2-Amino-N-(R)-1,2,3,4-tetrahydro-naphthalen-2-yl-nicotinamide]	1.96
Cc1ccc(C(=O)N[C@@H]2CCc3ccccc3C2)cn1 [Compound 19, 6-Methyl-N-(R)-1,2,3,4-tetrahydro-naphthalen-2-yl-nicotinamide]	10.9
Cc1ccc(C(=O)N[C@H]2CCc3ccccc3C2)cn1 [Compound 20, 6-Methyl-N-(S)-1,2,3,4-tetrahydro-naphthalen-2-yl-nicotinamide]	24.7
O=C(N[C@H]1CCc2ccccc2C1)c1cccc2[nH]ccc12 [Compound 22, 1H-Indole-4-carboxylic acid-N-(S)-(1,2,3,4-tetrahydro-naphthalen-2-yl)-amide]	8.82
O=C(N[C@@H]1CCc2ccccc2C1)c1ccc2[nH]cnc2c1 [Compound 23, 1H-Benzoimidazole-5-carboxylic acid N-(R)-(1,2,3,4-tetrahydro-naphthalen-2-yl)-amide]	11.5
O=C(N[C@@H]1CCc2ccccc2C1)c1ccc2[nH]nnc2c1 [Compound 25, 1H-Benzotriazole-5-carboxylic acid N-(R)-(1,2,3,4-tetrahydro-naphthalen-2-yl)-amide]	4.55
O=C(N[C@H]1CCc2ccccc2C1)c1ccc2[nH]nnc2c1 [Compound 26, 1H-Benzotriazole-5-carboxylic acid N-(S)-(1,2,3,4-tetrahydro-naphthalen-2-yl)-amide]	15.1
Cc1ncccc1C(=O)N[C@@H]1CCc2ccccc2C1 [Compound 27, 2-Methyl-N-(R)-1,2,3,4-tetrahydro-naphthalen-2-yl-nicotinamide]	0.18
Cc1nc(C)c(C(=O)N[C@@H]2CCc3ccccc3C2)s1 [Compound 29, 2,4-Dimethyl-thiazole-5-carboxylic acid N-(R)-(1,2,3,4-tetrahydro-naphthalen-2-yl)-amide]	10.5
Cc1nc(C)c(C(=O)N[C@H]2CCc3ccccc3C2)s1 [Compound 30, 2,4-Dimethyl-thiazole-5-carboxylic acid N-(S)-(1,2,3,4-tetrahydro-naphthalen-2-yl)-amide]	81.8
Cc1c(C(=O)N[C@@H]2CCc3ccccc3C2)cnn1-c1ccccc1 [Compound 31, 5-Methyl-1-phenyl-1H-pyrazole-4-carboxylic acid N-(R)-(1,2,3,4-tetrahydro-naphthalen-2-yl)-amide]	10.9
